In PubChem BioAssay AID2627 (Broad Institute, 2010):

Target: Alpha-synuclein (Homo sapiens) (UniProt P37840)
Experiment: increase of SNCA protein level in cells – Western blot, H4 cells, dose response (AID 2627)

ECmax: 1000 nM
Structure (SMILES): c1ccc2c(Nc3nnc(-c4ccncc4)s3)cccc2c1
